Source: patent US6432984B1, “Pyrazolecarboxylic acid derivatives, their preparation, pharmaceutical compositions containing them” (Sanofi-Synthelabo, priority 1999, dated 2002)

Tests used:
[1] = molecular target: T1, CB1 cannabinoid receptors (Homo sapiens, UniProt P21554); test: in vitro affinity for CB1 cannabinoid receptors (conditions of Devane et al.)
[2] = molecular target: T2, CB1 receptors present in the brain (Mus musculus, UniProt P47746); test: duration of occupation of the CB1 receptors present in the brain, in vivo after oral administration; conditions: mice, oral 10 mg/kg; for % of occupation of the receptors, 1 hour: 1 hour after administration; for % of occupation of the receptors, 24 hours: 24 hours after administration
T2 construct: from tissue; host or cells: mouse brain
Excerpt: Moreover, the duration of occupation of the CB1 receptors present in the brain by the 3 compounds below was compared: […]

[3] = test system: hypothermia induced with a cannabinoid receptor agonist (WIN 55212-2); test: antagonism of the hypothermia induced with WIN 55212-2; type: in vivo; conditions: mice; for ED50: Mus musculus, oral, WIN 55212-2 induced hypothermia; for Duration of action, 24 h, oral dose 1 mg/kg: oral dose 1 mg/kg
Excerpt: In this test, the activity and the duration of action of 3 compounds were compared.

[4] = molecular target: T1, CB1 cannabinoid receptors; test: models of adenylate-cyclase inhibition; type: biochemical; conditions: as described in Rinaldi-Carmona et al. 1996
Excerpt: More particularly, the compound of the present invention, in its native form or in the form of one of its pharmaceutically acceptable salts, is a powerful and selective antagonist of the CB1 cannabinoid receptors.

T2 sequence (P47746 whole entry): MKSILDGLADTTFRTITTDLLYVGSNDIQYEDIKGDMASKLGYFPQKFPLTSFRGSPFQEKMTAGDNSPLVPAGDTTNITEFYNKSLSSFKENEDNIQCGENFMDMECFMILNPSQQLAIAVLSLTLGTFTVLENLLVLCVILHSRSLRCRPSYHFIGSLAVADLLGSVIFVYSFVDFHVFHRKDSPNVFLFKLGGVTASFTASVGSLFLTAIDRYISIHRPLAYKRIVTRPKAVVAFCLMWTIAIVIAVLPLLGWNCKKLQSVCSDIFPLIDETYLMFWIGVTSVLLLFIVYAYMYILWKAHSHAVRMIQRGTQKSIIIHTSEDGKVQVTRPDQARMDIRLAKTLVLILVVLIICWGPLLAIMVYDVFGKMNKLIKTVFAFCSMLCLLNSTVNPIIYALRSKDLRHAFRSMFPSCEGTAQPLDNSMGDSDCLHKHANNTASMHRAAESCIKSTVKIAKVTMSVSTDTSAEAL
T1 sequence (P21554 whole entry): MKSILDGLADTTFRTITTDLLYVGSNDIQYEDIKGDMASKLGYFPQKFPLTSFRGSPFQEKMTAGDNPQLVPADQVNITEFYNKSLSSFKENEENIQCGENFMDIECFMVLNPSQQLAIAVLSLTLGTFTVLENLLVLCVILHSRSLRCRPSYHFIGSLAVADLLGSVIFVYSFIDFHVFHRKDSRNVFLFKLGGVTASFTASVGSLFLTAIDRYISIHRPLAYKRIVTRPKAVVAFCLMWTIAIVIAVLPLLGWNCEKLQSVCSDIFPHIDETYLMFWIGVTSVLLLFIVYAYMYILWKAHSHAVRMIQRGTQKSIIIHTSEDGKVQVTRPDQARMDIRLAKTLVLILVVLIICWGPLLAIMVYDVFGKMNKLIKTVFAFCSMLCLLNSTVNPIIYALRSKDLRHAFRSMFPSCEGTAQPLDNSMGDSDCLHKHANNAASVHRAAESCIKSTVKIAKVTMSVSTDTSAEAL

| Ki [1] | % of occupation of the receptors, 1 hour [2] | % of occupation of the receptors, 24 hours [2] | % of occupation of the receptors, 24 hours ([2]; 10 mg/kg) | % of occupation of the receptors, 24 hours ([2]; listed as compound of formula (I), 10 mg/kg) | antagonist nature in models of adenylate-cyclase inhibition [4] | Structure (SMILES) | ED50 [3] | Duration of action, 24 h, oral dose 1 mg/kg ([3]; 24 h after administration) | Duration of action, 24 h, oral dose 10 mg/kg ([3]; oral dose 10 mg/kg, 24 h after administration) |
| --- | --- | --- | --- | --- | --- | --- | --- | --- | --- |
| 8 nM | 89% | 4% |  |  |  | Cc1c(C(=O)NN2CCCCC2)nn(-c2ccc(Cl)cc2Cl)c1-c1ccc(Br)cc1 [Compound A, reference compound] | 0.3 mg/kg | not active | active |
| 5.4 nM | 82% |  | 44% | 44% | antagonist | CCc1c(C(=O)NN2CCCCC2)nn(-c2ccc(Cl)cc2Cl)c1-c1ccc(Br)cc1 [Compound of formula (I), N-piperidino-5-(4-bromophenyl)-1-(2,4-dichlorophenyl)-4-ethylpyrazole-3-carboxamide] | 0.3 mg/kg | active |  |
